# Measurements: ChEMBL document CHEMBL4680148, “Semisynthesis and biological evaluation of amidochelocardin derivatives as broad-spectrum antibiotics” (Eur J Med Chem, 2020)
# Legend:
# Klebsiella pneumoniae [1] = assay: Antibacterial activity against Klebsiella pneumoniae DSM-30104 assessed as minimum inhibitory concentration required for inhibition of bacterial growth measured after 18 hrs by microdilution method; type: functional
# Staphylococcus aureus [2] = assay: Antibacterial activity against Staphylococcus aureus DSM-11822 assessed as minimum inhibitory concentration required for inhibition of bacterial growth measured after 18 hrs by microdilution method; type: functional
# Pseudomonas aeruginosa [3] = assay: Antibacterial activity against Pseudomonas aeruginosa PA14 assessed as minimum inhibitory concentration required for inhibition of bacterial growth measured after 18 hrs by microdilution method; type: functional
# Pseudomonas aeruginosa [4] = assay: Antibacterial activity against Pseudomonas aeruginosa PA14 delta mexAB assessed as minimum inhibitory concentration required for inhibition of bacterial growth measured after 18 hrs by microdilution method; type: functional
# Escherichia coli [5] = assay: Antibacterial activity against Escherichia coli assessed as minimum inhibitory concentration required for inhibition of bacterial growth measured after 18 hrs by microdilution method; type: functional
# Escherichia coli [6] = assay: Antibacterial activity against Escherichia coli assessed as minimum inhibitory concentration required for inhibition of bacterial growth in presence of outer membrane permeabilizer PMBN measured after 18 hrs by microdilution method; type: functional
# Klebsiella pneumoniae [7] = assay: Antibacterial activity against Klebsiella pneumoniae DSM-30104 assessed as minimum inhibitory concentration required for inhibition of bacterial growth in presence of outer membrane permeabilizer PMBN measured after 18 hrs by microdilution method; type: functional
# Pseudomonas aeruginosa [8] = assay: Antibacterial activity against Pseudomonas aeruginosa DSM-1128 assessed as minimum inhibitory concentration required for inhibition of bacterial growth measured after 18 hrs by microdilution method; type: functional
# Staphylococcus aureus [9] = assay: Antibacterial activity against Staphylococcus aureus Newman assessed as minimum inhibitory concentration required for inhibition of bacterial growth measured after 18 hrs by microdilution method; type: functional
# Escherichia coli [10] = assay: Antibacterial activity against Escherichia coli DSM-1116 assessed as minimum inhibitory concentration required for inhibition of bacterial growth in presence of outer membrane permeabilizer PMBN measured after 18 hrs by microdilution method; type: functional
# Enterococcus faecium = assay: Antibacterial activity against Enterococcus faecium DSM-20477 assessed as minimum inhibitory concentration required for inhibition of bacterial growth measured after 18 hrs by microdilution method; type: functional
# Escherichia coli [11] = assay: Antibacterial activity against Escherichia coli DSM-1116 assessed as minimum inhibitory concentration required for inhibition of bacterial growth measured after 18 hrs by microdilution method; type: functional
# Staphylococcus aureus [12] = assay: Antibacterial activity against Staphylococcus aureus DSM-346 assessed as minimum inhibitory concentration required for inhibition of bacterial growth measured after 18 hrs by microdilution method; type: functional
# [13] = Stability of the compound in Escherichia coli growth medium assessed as intact compound by LC-MS analysis; type: physicochemical
# [14] = Stability of the compound in Escherichia coli assessed as intact compound by LC-MS analysis; type: ADME
# Pseudomonas aeruginosa [15] = assay: Antibacterial activity against Pseudomonas aeruginosa PA14 delta mexAB assessed as minimum inhibitory concentration required for inhibition of bacterial growth in presence of outer membrane permeabilizer PMBN measured after 18 hrs by microdilution method; type: functional
SMILES,MIC (Klebsiella pneumoniae [1]) [µg/mL],MIC (Staphylococcus aureus [2]) [µg/mL],MIC (Pseudomonas aeruginosa [3]) [µg/mL],MIC (Pseudomonas aeruginosa [4]) [µg/mL],MIC (Staphylococcus aureus [9]) [µg/mL],MIC (Enterococcus faecium) [µg/mL],other results
Cc1ccc2c(C)c3c(c(O)c2c1O)C(=O)[C@]1(O)C(=O)C(C(N)=O)=C(O)[C@H](N2C(=O)C=CC2=O)[C@@H]1C3,64,2,> 64,> 64,,,MIC (Escherichia coli [5]): > 64 µg/mL; MIC (Escherichia coli [6]): 8 µg/mL
Cc1cc(Cl)c2c(C)c3c(c(O)c2c1O)C(=O)[C@]1(O)C(=O)C(C(N)=O)=C(O)[C@H](N)[C@@H]1C3,8,,,,4,,MIC (Klebsiella pneumoniae [7]): 8 µg/mL; MIC (Pseudomonas aeruginosa [8]): 16 µg/mL
Cc1ccc2c(C)c3c(c(O)c2c1O)C(=O)[C@]1(O)C(=O)C(C(N)=O)=C(O)[C@H](N2C(=O)c4ccccc4C2=O)[C@@H]1C3,> 64,0.125,> 64,> 64,,,MIC (Escherichia coli [5]): > 64 µg/mL; MIC (Escherichia coli [6]): 0.5 µg/mL
C=CC(=O)N[C@H]1C(O)=C(C(N)=O)C(=O)[C@@]2(O)C(=O)c3c(c(C)c4ccc(C)c(O)c4c3O)C[C@@H]12,,,,> 64,4,8,MIC (Escherichia coli [10]): 2 µg/mL; MIC (Escherichia coli [11]): 32 µg/mL
CCOC(=O)N[C@H]1C(O)=C(C(N)=O)C(=O)[C@@]2(O)C(=O)c3c(c(C)c4ccc(C)c(O)c4c3O)C[C@@H]12,16,2,> 64,64,,,
Cc1ccc2c(C)c3c(c(O)c2c1O)C(=O)[C@]1(O)C(=O)C(C(N)=O)=C(O)[C@H](N(C)C)[C@@H]1C3,> 64,,> 64,,,> 64,MIC (Staphylococcus aureus [12]): > 64 µg/mL
Cc1ccc2c(C)c3c(c(O)c2c1O)C(=O)[C@]1(O)C(=O)C(C(N)=O)=C(O)[C@H](NC(=O)OCc2ccccc2)[C@@H]1C3,> 64,> 64,> 64,,,0.25,
Cc1ccc2c(C)c3c(c(O)c2c1O)C(=O)[C@]1(O)C(=O)C(C(N)=O)=C(O)[C@H](N)[C@@H]1C3.O=C([O-])CC(O)(CC(=O)[O-])C(=O)[O-].[Na+].[Na+].[Na+],2,8,16,0.5,,4,Stabilty [13]: Unstable; MIC (Escherichia coli [11]): 0.5 µg/mL; Stabilty [14]: Unstable
Cc1cc([N+](=O)[O-])c2c(C)c3c(c(O)c2c1O)C(=O)[C@]1(O)C(=O)C(C(N)=O)=C(O)[C@H](N)[C@@H]1C3,> 64,> 64,> 64,,,> 64,
CC(=O)N[C@H]1C(O)=C(C(N)=O)C(=O)[C@@]2(O)C(=O)c3c(c(C)c4ccc(C)c(O)c4c3O)C[C@@H]12,> 64,> 64,> 64,,,32,
Cc1ccc2c(C)c3c(c(O)c2c1O)C(=O)[C@]1(O)C(=O)C(C(N)=O)=C(O)[C@H](NC(=O)CN2CCN(C)CC2)[C@@H]1C3,,,,32,> 64,> 64,MIC (Escherichia coli [10]): 32 µg/mL; MIC (Escherichia coli [11]): 54 µg/mL
Cc1cc(C)c(-c2cc(C)c(O)c3c(O)c4c(c(C)c23)C[C@H]2[C@@H](N)C(O)=C(C(N)=O)C(=O)[C@@]2(O)C4=O)c(C)c1,32,0.5,> 64,,,,MIC (Escherichia coli [5]): > 64 µg/mL; MIC (Escherichia coli [6]): 8 µg/mL
CC(=O)C1=C(O)[C@H](N)[C@@H]2Cc3c(c(O)c4c(O)c(C)ccc4c3C)C(=O)[C@]2(O)C1=O.O=C([O-])CC(O)(CC(=O)[O-])C(=O)[O-].[Na+].[Na+].[Na+],2,8,64,4,,8,MIC (Escherichia coli [11]): 2 µg/mL
CC1=CC(=O)c2c(C)c3c(c(O)c2C1=O)C(=O)[C@]1(O)C(=O)C(C(N)=O)=C(O)[C@H](N)[C@@H]1C3,> 64,,,,32,,MIC (Klebsiella pneumoniae [7]): 64 µg/mL; MIC (Pseudomonas aeruginosa [8]): > 64 µg/mL
Cc1ccc2c(C)c3c(c4c2c1O[Si](C(C)(C)C)(C(C)(C)C)O4)C(=O)[C@]1(O)C(=O)C(C(N)=O)=C(O)[C@H](N)[C@@H]1C3,> 64,1,> 64,,,,MIC (Escherichia coli [5]): 64 µg/mL; MIC (Escherichia coli [6]): 8 µg/mL
Cc1cc(Br)c2c(C)c3c(c(O)c2c1O)C(=O)[C@]1(O)C(=O)C(C(N)=O)=C(O)[C@H](N)[C@@H]1C3,8,,,,8,,MIC (Klebsiella pneumoniae [7]): 4 µg/mL; MIC (Pseudomonas aeruginosa [8]): 32 µg/mL
Cc1ccc2c(C)c3c(c(O)c2c1O)C(=O)[C@]1(O)C(=O)C(C(N)=O)=C(O)[C@H](NC(=O)CCN)[C@@H]1C3,,,,32,64,> 64,MIC (Escherichia coli [10]): 8 µg/mL; MIC (Escherichia coli [11]): 16 µg/mL
COc1ccc(C(=O)N[C@H]2C(O)=C(C(N)=O)C(=O)[C@@]3(O)C(=O)c4c(c(C)c5ccc(C)c(O)c5c4O)C[C@@H]23)cc1,> 64,4,> 64,64,,,
Cc1cc(F)c2c(C)c3c(c(O)c2c1O)C(=O)[C@]1(O)C(=O)C(C(N)=O)=C(O)[C@H](N)[C@@H]1C3,8,4,8,4,,,
COc1ccc(-c2cc(C)c(O)c3c(O)c4c(c(C)c23)C[C@H]2[C@@H](N)C(O)=C(C(N)=O)C(=O)[C@@]2(O)C4=O)cc1,> 64,1,> 64,,,,MIC (Escherichia coli [5]): 32 µg/mL; MIC (Escherichia coli [6]): 2 µg/mL
CN[C@H]1C(O)=C(C(N)=O)C(=O)[C@@]2(O)C(=O)c3c(c(C)c4ccc(C)c(O)c4c3O)C[C@@H]12,> 64,,> 64,,,> 64,MIC (Staphylococcus aureus [12]): > 64 µg/mL
Cc1ccc2c(C)c3c(c(O)c2c1O)C(=O)[C@]1(O)C(=O)C(C(N)=O)=C(O)[C@H](NS(C)(=O)=O)[C@@H]1C3,> 64,> 64,> 64,,,32,
Cc1ccc2c(C)c3c(c(O)c2c1OC(=O)c1ccc(Br)cc1)C(=O)[C@]1(O)C(=O)C(C(N)=O)=C(O)[C@H](N)[C@@H]1C3,,,,,4,4,Stabilty [13]: Stable; MIC (Escherichia coli [10]): 64 µg/mL; MIC (Pseudomonas aeruginosa [15]): > 64 µg/mL; MIC (Escherichia coli [11]): > 64 µg/mL; Stabilty [14]: Stable
CC(=O)Oc1c(C)ccc2c(C)c3c(c(O)c12)C(=O)[C@]1(O)C(=O)C(C(N)=O)=C(O)[C@H](N)[C@@H]1C3,,,,,16,16,Stabilty [13]: Stable; MIC (Pseudomonas aeruginosa [15]): 1 µg/mL; MIC (Escherichia coli [11]): 8 µg/mL; Stabilty [14]: Stable
